Experimental data as given in PubChem BioAssay AID2060495 (Molecular Pharmacology Branch, DTP, NCI, 2025).
pIC50: −log10 of the molar value.

Tested on: 521955-158-R2-J5-PDC complex spheroid viability
Assay: Anticancer human tumor 521955-158-R2-J5-PDC patient-derived pancreatic carcinoma cell line growth inhibition [GQUAD]
Conditions: for pIC50: curve of first compound; for viability, T/C: stronger effect = lower value
Outline: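 Multi-cell-type spheroids of tumor cells with HUVEC and mesenchymal stem cells, treated with drug combinations. Concentrations descend in half-log steps from near clinical Cmax, or from 10 microM where Cmax is unknown; viability read-out.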

[1] = second compound 0.0316 µM, first compound 0.0316 µM
[2] = second compound 0.0316 µM, first compound 0.1 µM
[3] = second compound 0.0316 µM, first compound 0.316 µM
[4] = second compound 0.0316 µM, first compound 1 µM
[5] = second compound 0.0316 µM, first compound 3.16 µM
[6] = second compound 0.0316 µM, first compound 10 µM
[7] = second compound 0.1 µM, first compound 0.0316 µM
[8] = second compound 0.1 µM, first compound 0.1 µM
[9] = second compound 0.1 µM, first compound 0.316 µM
[10] = second compound 0.1 µM, first compound 1 µM
[11] = second compound 0.1 µM, first compound 3.16 µM
[12] = second compound 0.1 µM, first compound 10 µM
[13] = second compound 0.316 µM, first compound 0.0316 µM
[14] = second compound 0.316 µM, first compound 0.1 µM
[15] = second compound 0.316 µM, first compound 0.316 µM
[16] = second compound 0.316 µM, first compound 1 µM
[17] = second compound 0.316 µM, first compound 3.16 µM
[18] = second compound 0.316 µM, first compound 10 µM
[19] = second compound 1 µM, first compound 0.0316 µM
[20] = second compound 1 µM, first compound 0.1 µM
[21] = second compound 1 µM, first compound 0.316 µM
[22] = second compound 1 µM, first compound 1 µM
[23] = second compound 1 µM, first compound 3.16 µM
[24] = second compound 1 µM, first compound 10 µM
[25] = second compound 3.16 µM, first compound 0.0316 µM
[26] = second compound 3.16 µM, first compound 0.1 µM
[27] = second compound 3.16 µM, first compound 0.316 µM
[28] = second compound 3.16 µM, first compound 1 µM
[29] = second compound 3.16 µM, first compound 3.16 µM
[30] = second compound 3.16 µM, first compound 10 µM
[31] = second compound 10 µM, first compound 0.0316 µM
[32] = second compound 10 µM, first compound 0.1 µM
[33] = second compound 10 µM, first compound 0.316 µM
[34] = second compound 10 µM, first compound 1 µM
[35] = second compound 10 µM, first compound 3.16 µM
[36] = second compound 10 µM, first compound 10 µM
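Also: spheroids exposed to agents for one week before reading.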
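For viability, T/C in this document: 100% = DMSO vehicle control viability.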

`CC1COCCN1c1cc(C2(O)CC3CCC(C2)O3)c2cnn(-c3ccn[nH]3)c2n1` (stereo not drawn) + CN(C)c1ccc(Nc2c3ccc(NC(=O)CCN4CCCC4)cc3nc3cc(NC(=O)CCN4CCCC4)ccc23)cc1 was tested, and the pIC50 (second compound 0.0316 µM) was 7.35, the pIC50 (second compound 0.1 µM) was 7.45 and the pIC50 (second compound 0.316 µM) was 7.50. For the same compound, the pIC50 (second compound 1 µM) was 7.44, the pIC50 (second compound 3.16 µM) was greater than 7.50 and the pIC50 (second compound 10 µM) was greater than 7.50. It also gave a viability, T/C [1] of 60.7%, a viability, T/C [2] of 20.8% and a viability, T/C [3] of 22.1%. For the same compound, the viability, T/C [4] was 27.8%, the viability, T/C [5] was 32.3% and the viability, T/C [6] was 20.1%. It also gave a viability, T/C [7] of 52.4%, a viability, T/C [8] of 18.3% and a viability, T/C [9] of 24%. For the same compound, the viability, T/C [10] was 26.1%, the viability, T/C [11] was 32.9% and the viability, T/C [12] was 19.2%. The viability, T/C [13] was 50.1%, the viability, T/C [14] was 20.1% and the viability, T/C [15] was 23.8%. It also gave a viability, T/C [16] of 31.3%, a viability, T/C [17] of 31.9% and a viability, T/C [18] of 19.6%. It also gave a viability, T/C [19] of 53.5%, a viability, T/C [20] of 17.6% and a viability, T/C [21] of 17.9%. For the same compound, the viability, T/C [22] was 26.4%, the viability, T/C [23] was 37.4% and the viability, T/C [24] was 14.2%. For the same compound, the viability, T/C [25] was 47%, the viability, T/C [26] was 21.5% and the viability, T/C [27] was 18.9%. The viability, T/C [28] was 27.6%, the viability, T/C [29] was 34.1% and the viability, T/C [30] was 17.2%. It also gave a viability, T/C [31] of 49.3%, a viability, T/C [32] of 30.1% and a viability, T/C [33] of 27.9%. It also gave a viability, T/C [34] of 25.3%, a viability, T/C [35] of 28.4% and a viability, T/C [36] of 13.3%.

With `O=C(NO)c1cnc(N2CCN(S(=O)(=O)c3ccc4ccccc4c3)CC2)nc1` + Cc1cnc(CNC(=O)c2c(=O)c3ccc(N4CCCN(C)CC4)nc3n3c2sc2ccccc23)cn1 the pIC50 (second compound 0.0316 µM) was 6.63, the pIC50 (second compound 0.1 µM) was 6.78 and the pIC50 (second compound 0.316 µM) was greater than 7.50. The pIC50 (second compound 1 µM) was greater than 7.50, the pIC50 (second compound 3.16 µM) was greater than 7.50 and the pIC50 (second compound 10 µM) was greater than 7.50. For the same compound, the viability, T/C [1] was 106%, the viability, T/C [2] was 78.9% and the viability, T/C [3] was 42.1%. The viability, T/C [4] was 5.64%, the viability, T/C [5] was 0.04% and the viability, T/C [6] was 0.1%. It also gave a viability, T/C [7] of 53.6%, a viability, T/C [8] of 51.4% and a viability, T/C [9] of 47%. The viability, T/C [10] was 6.79%, the viability, T/C [11] was 0.05% and the viability, T/C [12] was 0.08%. For the same compound, the viability, T/C [13] was 27.5%, the viability, T/C [14] was 36.1% and the viability, T/C [15] was 29.8%. For the same compound, the viability, T/C [16] was 1.02%, the viability, T/C [17] was 0.05% and the viability, T/C [18] was 0.07%. The viability, T/C [19] was 20.1%, the viability, T/C [20] was 22.9% and the viability, T/C [21] was 12.9%. For the same compound, the viability, T/C [22] was 0.1%, the viability, T/C [23] was 0.04% and the viability, T/C [24] was 0.08%. The viability, T/C [25] was 11.7%, the viability, T/C [26] was 17.4% and the viability, T/C [27] was 4.19%. The viability, T/C [28] was 0.1%, the viability, T/C [29] was 0.07% and the viability, T/C [30] was 0.11%. The viability, T/C [31] was 11.8%, the viability, T/C [32] was 8.03% and the viability, T/C [33] was 2.82%. The viability, T/C [34] was 0.14%, the viability, T/C [35] was 0.15% and the viability, T/C [36] was 0.18%.

For `CCCS(=O)(=O)Nc1ccc(F)c(C(=O)c2c[nH]c3ncc(-c4ccc(Cl)cc4)cc23)c1F` + Cc1[nH]c2ccc(F)cc2c1-c1nc2c3cccnc3c3ncccc3c2[nH]1, the pIC50 (second compound 0.0316 µM) was less than 5.00, the pIC50 (second compound 0.1 µM) was less than 5.00 and the pIC50 (second compound 0.316 µM) was less than 5.00. It also gave a pIC50 (second compound 1 µM) of less than 5.00, a pIC50 (second compound 3.16 µM) of less than 5.00 and a pIC50 (second compound 10 µM) of less than 5.00. It also gave a viability, T/C [1] of 103%, a viability, T/C [2] of 95.9% and a viability, T/C [3] of 79.8%. The viability, T/C [4] was 105%, the viability, T/C [5] was 198% and the viability, T/C [6] was 112%. For the same compound, the viability, T/C [7] was 104%, the viability, T/C [8] was 86% and the viability, T/C [9] was 72.1%. It also gave a viability, T/C [10] of 97.4%, a viability, T/C [11] of 226% and a viability, T/C [12] of 96.9%. The viability, T/C [13] was 97.2%, the viability, T/C [14] was 95.5% and the viability, T/C [15] was 78.6%. The viability, T/C [16] was 101%, the viability, T/C [17] was 226% and the viability, T/C [18] was 105%. The viability, T/C [19] was 99.9%, the viability, T/C [20] was 88.6% and the viability, T/C [21] was 78.1%. It also gave a viability, T/C [22] of 102%, a viability, T/C [23] of 272% and a viability, T/C [24] of 95.2%. For the same compound, the viability, T/C [25] was 92.3%, the viability, T/C [26] was 76% and the viability, T/C [27] was 65%. The viability, T/C [28] was 220%, the viability, T/C [29] was 265% and the viability, T/C [30] was 99.9%. The viability, T/C [31] was 99.8%, the viability, T/C [32] was 84.9% and the viability, T/C [33] was 64.9%. The viability, T/C [34] was 173%, the viability, T/C [35] was 258% and the viability, T/C [36] was 84.6%.

With `Cc1cccc(N(C)C(=O)C2C(O)CCN2c2nc(C)cc(C(F)(F)F)c2C#N)c1` (stereo not drawn) + Cc1cnc(CNC(=O)c2c(=O)c3ccc(N4CCCN(C)CC4)nc3n3c2sc2ccccc23)cn1 the pIC50 (second compound 0.0316 µM) was less than 5.00, the pIC50 (second compound 0.1 µM) was less than 5.00 and the pIC50 (second compound 0.316 µM) was greater than 7.50. The pIC50 (second compound 1 µM) was greater than 7.50, the pIC50 (second compound 3.16 µM) was greater than 7.50 and the pIC50 (second compound 10 µM) was greater than 7.50. The viability, T/C [1] was 96.8%, the viability, T/C [2] was 75% and the viability, T/C [3] was 92.8%. It also gave a viability, T/C [4] of 78.9%, a viability, T/C [5] of 101% and a viability, T/C [6] of 89.6%. For the same compound, the viability, T/C [7] was 54.9%, the viability, T/C [8] was 66.2% and the viability, T/C [9] was 71.5%. The viability, T/C [10] was 62.2%, the viability, T/C [11] was 88.7% and the viability, T/C [12] was 74.6%. It also gave a viability, T/C [13] of 43.7%, a viability, T/C [14] of 49.9% and a viability, T/C [15] of 40.9%. The viability, T/C [16] was 43.7%, the viability, T/C [17] was 46.5% and the viability, T/C [18] was 38.2%. It also gave a viability, T/C [19] of 23.6%, a viability, T/C [20] of 22.5% and a viability, T/C [21] of 22.7%. The viability, T/C [22] was 24.4%, the viability, T/C [23] was 20.9% and the viability, T/C [24] was 22.9%. It also gave a viability, T/C [25] of 19.1%, a viability, T/C [26] of 22.3% and a viability, T/C [27] of 19.8%. For the same compound, the viability, T/C [28] was 22.8%, the viability, T/C [29] was 20.6% and the viability, T/C [30] was 20.1%. For the same compound, the viability, T/C [31] was 20.7%, the viability, T/C [32] was 19.2% and the viability, T/C [33] was 21.5%. It also gave a viability, T/C [34] of 20.2%, a viability, T/C [35] of 24.7% and a viability, T/C [36] of 20.2%.
